Results published in EPA's ToxValDB 9.5 (doi:10.2903/j.efsa.2009.174r).

What was measured:
[1] = tested on: Coturnix japonica; details: reproduction developmental; duration: 6 weeks
[2] = tested on: Pimephales promelas; details: chronic/long-term; duration: 34 days; reproduction
[3] = tested on: Cyprinus carpio; details: acute; duration: 96 hours; mortality
[4] = tested on: Canidae; details: oral, Dog Other
[5] = tested on: Daphnia magna; details: chronic/long-term; duration: 21 days; reproduction
[6] = tested on: Zea sp.; details: chronic/long-term
[7] = tested on: Colinus virginianus; details: oral; for LD50: acute, mortality
[8] = reproductive
[9] = tested on: Landoltia sp.; details: chronic/long-term; duration: 14 days
[10] = tested on: Aphidius rhopalosiphi; details: not reported; mortality
[11] = tested on: Rattus norvegicus; details: acute; oral; mortality
[12] = tested on: Homo sapiens; details: clinical; oral; capsule; clinical signs
[13] = tested on: Tagia sp.
[14] = tested on: Anas platyrhynchos; details: acute, oral, unspecified
[15] = tested on: Apis mellifera; details: acute; duration: 48 hours; dermal; mortality

`O=P(O)(O)CCCl` [Ethephon] gave an NOEL [1] of 159 mg/kg-day, an NOEC [2] of 43 mg/L and an LC50 [3] of over 100 µg/mL. It also gave an NOAEL ([4]; chronic, duration: 1 years, body weight) of 27 mg/kg-day, an NOAEL ([4]; short-term, duration: 28 days, clinical chemistry) of 6 mg/kg-day and an NOEC [5] of 67 mg/L. It also gave an NOEC [6] of 2580 g/ha, an LD50 ([7]; duration: 8 days, diet) of over 450 mg/kg and an LD50 [7] of 764 mg/kg. It also gave an NOEL ([7]; short-term, duration: 8 days, diet) of over 530 mg/kg-day, an NOAEL [8] of 22.8 mg/kg-day and an NOEC [9] of under 0.1 mg/L. For the same molecule, the LEL [10] was 480 g/ha, the LD50 [11] was 1560 mg/kg and the NOAEL [12] was 0.5 mg/kg-day. The LC50 ([13]; acute, duration: 14 days, mortality) was over 60000 g/ha, the NOEC ([13]; chronic/long-term, duration: 8 weeks, reproduction) was at least 200 mg/kg and the NOEL [14] was 450 mg/kg. The LD50 ([14]; mortality) was 1420 mg/kg and the LD50 [15] was over 100 µg/piece.
